Laboratory results taken from patent publication US5912331A, “Process for the preparation of 9-deoxo-9(Z)-hydroxyiminoerythromycin A” (Merck & Co., Inc., priority 1991, dated 1999).
Values after ≈ are worked out from the molar mass of the structure shown. Like-named read-outs stand apart in the source and are kept apart here.

Legend:
[1] = isomer conversion under the MIC assay conditions; format: physicochemical
Description: (§1) The antibacterial activity of 9-deoxo-9(Z)-hydroxyiminoerythromycin A (II) against a panel of aerobic Gram positive and negative bacteria is shown in the following Table. The assay employs a liquid turbidimetric microtiter method for determination of the minimum inhibitory concentration (MIC) in brain heart infusion broth. […] The MIC is generally not an absolute value but rather a concentration range that falls within a two-fold dilution limit. Generally twelve two-fold dilutions of the test compound are employed with the initial concentration set at 128 mcg/ml.

[2] = system: panel of aerobic Gram positive and negative bacteria; test: antibacterial activity in vitro against a panel of bacteria; format: cell-based
Description: as §1

[3] = system: Streptococcus agalactiae CL 1343; test: MIC, liquid turbidimetric microtiter method in brain heart infusion broth; format: cell-based; conditions: CL1343
Description: as §1

[4] = system: Streptococcus pyogenes MB 5406; test: as above; format: cell-based; conditions: MB5406
Description: as §1

[5] = system: Streptococcus pyogenes MB 2874; test: as above; format: cell-based; conditions: MB2874
Description: as §1

[6] = system: Streptococcus viridans CL 2943; test: as above; format: cell-based; conditions: CL2943
Description: as §1

[7] = system: Enterococcus faecalis MB 5407; test: as above; format: cell-based; conditions: MB5407
Description: as §1

[8] = system: Enterococcus faecium MB 5416; test: as above; format: cell-based; conditions: MB5416
Description: as §1

[9] = system: Staphylococcus aureus MB 2865; test: as above; format: cell-based; conditions: MB2865
Description: as §1

[10] = system: Steptococcus pneumoniae CL 2883; test: as above; format: cell-based
Description: as §1

[11] = system: Staphylococcus haemolyticus MB 5412; test: as above; format: cell-based; conditions: MB5412
Description: as §1

[12] = system: Yersinia enterocoltica CL 1598; test: as above; format: cell-based; conditions: CL1598
Description: as §1

[13] = system: Staphylococcus epidermidis MB 5414; test: as above; format: cell-based; conditions: MB5414
Description: as §1

[14] = system: Klebsiella pneumoniae MB4005; test: as above; format: cell-based
Description: as §1

[15] = system: Pseudomonas stutzeri MB 1231; test: as above; format: cell-based; conditions: Stutzerimonas stutzeri, MB1231
Description: (§2) The assay employs a liquid turbidimetric microtiter method for determination of the minimum inhibitory concentration (MIC) in brain heart infusion broth. […] The MIC is generally not an absolute value but rather a concentration range that falls within a two-fold dilution limit.

[16] = system: Escherichia coli MB 4926; test: as above; format: cell-based; conditions: MB4926
Description: as §2

[17] = system: Escherichia coli MB 2884; test: as above; format: cell-based; conditions: MB2884
Description: as §2

[18] = system: Gram-positive microorganisms, e.g. Staphylococcus aureaus and Streptococcus pyogenes, and certain Gram-negative microorganisms; test: in vivo antibacterial activity, infected mice treated orally or subcutaneously
Description: Extrapolation of such in vivo tests to support for human utility for macrolide compounds is likewise taught in U.S. Pat. No. 4,518,590, cited above.

[19] = Streptococcus agalactiae CL 1343, brain heart infusion broth, read-out: MIC
[20] = Streptococcus pyogenes MB 5406, brain heart infusion broth, read-out: MIC
[21] = Streptococcus pyogenes MB 2874, brain heart infusion broth, read-out: MIC
[22] = Streptococcus viridans CL 2943, brain heart infusion broth, read-out: MIC
[23] = Enterococcus faecalis MB 5407, brain heart infusion broth, read-out: MIC
[24] = Enterococcus faecium MB 5416, brain heart infusion broth, read-out: MIC
[25] = Staphylococcus aureus MB 2865, brain heart infusion broth, read-out: MIC
[26] = Steptococcus pneumoniae CL 2883, brain heart infusion broth, read-out: MIC
[27] = Staphylococcus haemolyticus MB 5412, brain heart infusion broth, read-out: MIC
[28] = Yersinia enterocoltica CL 1598, brain heart infusion broth, read-out: MIC
[29] = Staphylococcus epidermidis MB 5414, brain heart infusion broth, read-out: MIC
[30] = Klebsiella pneumoniae MB4005, brain heart infusion broth, read-out: MIC

For `CC[C@H]1OC(=O)[C@H](C)[C@@H](O[C@H]2C[C@@](C)(OC)[C@@H](O)[C@H](C)O2)[C@H](C)[C@@H](O[C@@H]2O[C@H](C)C[C@H](N(C)C)[C@H]2O)[C@](C)(O)C[C@@H](C)/C(=N/O)[C@H](C)[C@@H](O)[C@]1(C)O` [(II), 9-Deoxo-9(Z)-hydroxyiminoerythromycin A], the “conversion of (Z)isomer to (E)isomer” value [1] was “An undetermined fraction of the (Z)isomer is converting”, the “activity in vitro (in words)” value ([2]; MIC panel, compared with (III) and erythromycin A (I)) was “comparable with the activities of the known compounds 9-deoxo-9(E)-hydroxyiminoerythromycin A (III) and erythromycin A (I)” and the “in vitro activity against Gram-positive and certain Gram-negative microorganisms” value ([2]; e.g. Staphylococcus aureas, Streptococcus pyogenes, certain Gram-negative cocci) was “exhibits in vitro activity against a variety of Gram-positive microorganisms, e.g. Staphylococcus aureas and Streptococcus pyogenes, and against certain Gram-negative microorganisms”. The MIC [3, 19] was ≤ 0.06 µg/mL, the MIC [4, 20] was 32 µg/mL (≈ 42.7 µM) and the MIC [5, 21] was ≤ 0.06 µg/mL. The MIC [6, 22] was ≤ 0.06 µg/mL, the MIC [7, 23] was 2 µg/mL (≈ 2.67 µM) and the MIC [8, 24] was 0.25 µg/mL (≈ 0.334 µM). For the same compound, the MIC [9, 25] was 0.25 µg/mL (≈ 0.334 µM), the MIC [10, 26] was ≤ 0.06 µg/mL and the MIC [11, 27] was 0.12 µg/mL (≈ 0.16 µM). The MIC [12, 28] was 32 µg/mL (≈ 42.7 µM), the MIC [13, 29] was 0.12 µg/mL (≈ 0.16 µM) and the MIC [14, 30] was 32 µg/mL (≈ 42.7 µM). For the same compound, the MIC [15] was ≤ 0.06 µg/mL, the MIC [16] was 0.5 µg/mL (≈ 0.668 µM) and the MIC [17] was 16 µg/mL (≈ 21.4 µM). For the same compound, the “in vivo activity compared with in vitro activity” value ([18]; as regards susceptible organisms) was “more limited than its in vitro activity” and the in vivo activity ([18]; oral and parenteral routes) was “active in vivo versus a variety of Gram-positive microorganisms, e.g. Staphylococcus aureaus and Streptococcus pyogenes, and also certain Gram-negative microorganisms”.
With `CC[C@H]1OC(=O)[C@H](C)[C@@H](O[C@H]2C[C@@](C)(OC)[C@@H](O)[C@H](C)O2)[C@H](C)[C@@H](O[C@@H]2O[C@H](C)C[C@H](N(C)C)[C@H]2O)[C@](C)(O)C[C@@H](C)C(=O)[C@H](C)[C@@H](O)[C@]1(C)O` [(I), Erythromycin A] the MIC ([3]; Streptococcus agalactiae) was ≤ 0.06 µg/mL, the MIC ([4]; Streptococcus pyogenes) was 16 µg/mL (≈ 21.8 µM) and the MIC ([5]; Streptococcus pyogenes) was ≤ 0.06 µg/mL. For the same compound, the MIC ([6]; Streptococcus viridans) was ≤ 0.06 µg/mL, the MIC ([7]; Enterococcus faecalis) was 1 µg/mL (≈ 1.36 µM) and the MIC ([8]; Enterococcus faecium) was 0.12 µg/mL (≈ 0.164 µM). The MIC ([9]; Staphylococcus aureus) was 0.25 µg/mL (≈ 0.341 µM), the MIC [10] was ≤ 0.06 µg/mL and the MIC ([11]; Staphylococcus haemolyticus) was 0.12 µg/mL (≈ 0.164 µM). It also gave an MIC ([12]; Yersinia) of 32 µg/mL (≈ 43.6 µM), an MIC ([13]; Staphylococcus epidermidis) of 0.12 µg/mL (≈ 0.164 µM) and an MIC ([14]; Klebsiella pneumoniae, MB4005) of 32 µg/mL (≈ 43.6 µM). The MIC [15] was ≤ 0.06 µg/mL, the MIC [16] was 0.25 µg/mL (≈ 0.341 µM) and the MIC [17] was 16 µg/mL (≈ 21.8 µM).
For `CC[C@H]1OC(=O)[C@H](C)[C@@H](O[C@H]2C[C@@](C)(OC)[C@@H](O)[C@H](C)O2)[C@H](C)[C@@H](O[C@@H]2O[C@H](C)C[C@H](N(C)C)[C@H]2O)[C@](C)(O)C[C@@H](C)/C(=N\O)[C@H](C)[C@@H](O)[C@]1(C)O` [(III), 9-Deoxo-9(E)-hydroxyiminoerythromycin A], the MIC [3, 19] was ≤ 0.06 µg/mL, the MIC [4, 20] was 16 µg/mL (≈ 21.4 µM) and the MIC [5, 21] was ≤ 0.06 µg/mL. For the same compound, the MIC [6, 22] was ≤ 0.06 µg/mL, the MIC [7, 23] was 0.5 µg/mL (≈ 0.668 µM) and the MIC [8, 24] was 0.12 µg/mL (≈ 0.16 µM). The MIC [9, 25] was 0.25 µg/mL (≈ 0.334 µM), the MIC [10, 26] was 0.12 µg/mL (≈ 0.16 µM) and the MIC [11, 27] was 0.12 µg/mL (≈ 0.16 µM). It also gave an MIC [12, 28] of 16 µg/mL (≈ 21.4 µM), an MIC [13, 29] of 0.12 µg/mL (≈ 0.16 µM) and an MIC [14, 30] of 32 µg/mL (≈ 42.7 µM). For the same compound, the MIC [15] was 1 µg/mL (≈ 1.34 µM), the MIC [16] was 0.25 µg/mL (≈ 0.334 µM) and the MIC [17] was 32 µg/mL (≈ 42.7 µM).
